In publication PMC10901353, “Identification of a potent and selective LAPTc inhibitor by RapidFire-Mass Spectrometry, with antichagasic activity” (PLOS Neglected Tropical Diseases, 2024):
Several values for one entry are separate records, joined by “and”; a condition that tells them apart may be missing. Equal values may be shown once.

Target: T1, LAPTc (acidic M17 leucyl-aminopeptidase from T. cruzi) (Trypanosoma cruzi, UniProt V5BWE3)
Assay: High-throughput single point screening for LAPTc inhibitors by RapidFire-MS
Format: biochemical
Settings: primary screen, 30 μM, single replicate; read-out: Percent Inhibition
Method: (§1) This assay was previously described. The assay was performed in 384-well clear F-bottom polypropylene plates with a final reaction volume of 15 μL. The reaction mixture contained 7.5 μL LAPTc in 50 mM Tris-HCl, pH 7.5, 0.005% NP-40 and 7.5 μL LSTVIVR peptide substrate (Cambridge Research Biochemicals, Billingham, UK) in the same buffer was added to start the reaction. The reaction was performed at room temperature for 40 min and then stopped with 85 μL 1% formic acid containing 0.15 mg/mL STVIVR* internal standard (Cambridge Research Biochemicals, Billingham, UK).
Single point screening of a library of 3329 compounds was performed in 384-well clear plates (Greiner 781101) at room temperature. Test compounds (45 nL in DMSO) were transferred to assay plates by an ECHO 550 acoustic dispenser (Labcyte). LAPTc was tested at 3 nM with 150 μM (approximately the value of the apparent Michaelis-Menten constant -appKM- [16]) LSTVIVR peptide substrate in a 40 min reaction. Before addition of substrate, LAPTc was preincubated with 45 nL compounds or DMSO for 15 min. Compounds, dissolved in DMSO, were tested at 30 μM. Controls without compound (the same volume of DMSO, 0% inhibitory effect) and without enzyme and compound (100% inhibitory effect) were prepared. The experiment was performed without replicates. The remaining experimental conditions were maintained as previously described. Data were processed and analysed through ActivityBase XE (IDBS). The selection criterion for hits in this single point screen was percent inhibition larger than the mean plus three standard deviations. All primary screening data are available in ChEMBL (see Data Availability statement).

T1 sequence (V5BWE3 entry or part of it): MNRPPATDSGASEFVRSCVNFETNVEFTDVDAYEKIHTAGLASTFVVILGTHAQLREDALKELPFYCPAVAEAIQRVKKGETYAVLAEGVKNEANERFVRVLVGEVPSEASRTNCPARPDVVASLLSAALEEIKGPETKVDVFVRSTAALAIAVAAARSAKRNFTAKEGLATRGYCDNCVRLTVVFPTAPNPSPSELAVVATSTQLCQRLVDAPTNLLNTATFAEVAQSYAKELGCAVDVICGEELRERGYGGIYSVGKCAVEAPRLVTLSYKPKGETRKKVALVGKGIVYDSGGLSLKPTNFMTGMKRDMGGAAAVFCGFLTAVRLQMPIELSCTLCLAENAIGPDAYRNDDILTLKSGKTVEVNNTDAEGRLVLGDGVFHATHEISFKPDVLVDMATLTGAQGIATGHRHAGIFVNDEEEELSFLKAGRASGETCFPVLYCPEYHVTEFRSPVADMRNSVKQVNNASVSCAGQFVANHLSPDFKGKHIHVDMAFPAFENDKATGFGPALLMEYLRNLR

Structure (SMILES)	inhibition at 30 µM [%]
CC1c2ccsc2CCN1C(=O)c1ccc(-n2cnnn2)cc1 (centres unmarked) [Compound 2]	62
Cc1ccc2nc(-c3ccc(NS(=O)(=O)c4cc(C(=O)O)c(Cl)cc4Cl)cc3)sc2c1 [Compound 5]	58
O=C(CN1NS(=O)(=O)c2ccccc2C1=O)NCCc1ccccc1 [Compound 6]	56

Test system: not listed separately
Assay: Cytotoxicity assay on human HepG2 cells (resazurin)
Format: cell-based
Settings: human, HepG2 cells, 72 h, two independent experiments; read-out: pCC50 (HepG2) (converted)

Structure (SMILES)	CC50 at 72 h [µM]
CC1c2ccsc2CCN1C(=O)c1ccc(-n2cnnn2)cc1 (centres unmarked) [Compound 2]	> 100
Cc1ccc2nc(-c3ccc(NS(=O)(=O)c4cc(C(=O)O)c(Cl)cc4Cl)cc3)sc2c1 [Compound 5]	> 100
O=C(CN1NS(=O)(=O)c2ccccc2C1=O)NCCc1ccccc1 [Compound 6]	> 100

Test system: HepG2 cells
Assay: as above
Format: cell-based
Settings: individual replicates

Structure (SMILES)	Max Effect (HepG2)	pEC50 (HepG2)
CC1c2ccsc2CCN1C(=O)c1ccc(-n2cnnn2)cc1 (centres unmarked) [Compound 2]	4 and 3	< 4.0
Cc1ccc2nc(-c3ccc(NS(=O)(=O)c4cc(C(=O)O)c(Cl)cc4Cl)cc3)sc2c1 [Compound 5]	4.7 and 1.78	< 4.0
O=C(CN1NS(=O)(=O)c2ccccc2C1=O)NCCc1ccccc1 [Compound 6]	3.48 and 3.47	< 4.0

Test system: not listed separately
Assay: Cytotoxicity against infected Vero host cells in T. cruzi intracellular assay
Format: cell-based, African green monkey
Design: Max Effect (Vero): unit not given here
Settings: African green monkey, Vero cells infected with T. cruzi; infected Vero host cells, 96 h; read-out: pCC50 (Vero) +/- StDev (converted)
Method: (§2) Briefly, these cells were maintained at 37°C and 5% CO2 in MEM supplemented with 10% FCS, sub-culturing every 2–3 days at a ratio of 1:5 after 5 min treatment with Trypsin-EDTA (Gibco).
(§3) This assay was performed as described with the only modification that treatment was 96 h instead of 72 h. Briefly, Vero cells were infected overnight with tissue culture derived T. cruzi trypomastigotes in T225 tissue culture flasks (MOI 5). Any remaining free trypomastigotes were washed away with serum free MEM and the infected Vero cells were harvested by trypsinisation. Compounds (250 nL in DMSO) were dispensed using LabCyte ECHO (Beckman Coulter Life Sciences, USA) into each well of Corning black flat bottomed 384-well plates (Corning, USA). […] The infected Vero cells were then plated into the plates containing the compounds, at 4,000 cells per well in MEM media with 1% FCS. […] The plates were imaged on a Perkin Elmer Operetta high-content imaging system using a 20× objective. Images were analyzed using the Columbus system (Perkin Elmer). The algorithm first identified the Vero nuclei followed by demarcation of the cytoplasm and identification of intracellular amastigotes. This algorithm reported percent infected Vero cell and total number of Vero cells. All potency determinations were carried out in at least three independent replicates and are reported as pEC50 +/- standard deviation. pEC50 = -log(EC50[M]).

Structure (SMILES)	CC50 at 96 h [µM]
CC1c2ccsc2CCN1C(=O)c1ccc(-n2cnnn2)cc1 (centres unmarked) [Compound 2]	> 50.1
Cc1ccc2nc(-c3ccc(NS(=O)(=O)c4cc(C(=O)O)c(Cl)cc4Cl)cc3)sc2c1 [Compound 5]	33.1
O=C(CN1NS(=O)(=O)c2ccccc2C1=O)NCCc1ccccc1 [Compound 6]	> 50.1

Test system: Vero cells
Assay: as above
Format: cell-based, African green monkey
Design: Max Effect (Vero): unit not given here
Settings: individual replicates
Method: as §2, §3

Structure (SMILES)	Max Effect (Vero)	pEC50 (Vero)
CC1c2ccsc2CCN1C(=O)c1ccc(-n2cnnn2)cc1 (centres unmarked) [Compound 2]	26 and 27 and 21 and 22	< 4.3
Cc1ccc2nc(-c3ccc(NS(=O)(=O)c4cc(C(=O)O)c(Cl)cc4Cl)cc3)sc2c1 [Compound 5]	71 and 82 and 77	4.4 and 4.6 and 4.5
O=C(CN1NS(=O)(=O)c2ccccc2C1=O)NCCc1ccccc1 [Compound 6]	8.54 and 13 and 11 and 18	< 4.3

Target: T1, LAPTc (acidic M17 leucyl-aminopeptidase from T. cruzi)
Assay: Dose-response studies for LAPTc inhibition by RapidFire-MS
Format: biochemical
Settings: Initial hit confirmation, single replicate
Method: as §1
To generate half-maximum inhibitory concentration (IC50) data for LAPTc, 10-point dose-response curves with 100 μM as highest concentration and 1:2 dilution in DMSO (0.195–100 μM range) were prepared in 384 well plates. All other experimental conditions were as described above. All IC50 curve fitting was performed by four-parameter logistic dose-response curve fit using ActivityBase XE (IDBS). At least three replicates were generated for each hit compound.

Structure (SMILES)	Hill Slope
CC1c2ccsc2CCN1C(=O)c1ccc(-n2cnnn2)cc1 (centres unmarked) [Compound 2]	1.7
Cc1ccc2nc(-c3ccc(NS(=O)(=O)c4cc(C(=O)O)c(Cl)cc4Cl)cc3)sc2c1 [Compound 5]	1.2
O=C(CN1NS(=O)(=O)c2ccccc2C1=O)NCCc1ccccc1 [Compound 6]	0.543

Same assay, conditions: Initial hit confirmation, single replicate; read-out: Maximum Effect

Structure (SMILES)	Emax [%]
CC1c2ccsc2CCN1C(=O)c1ccc(-n2cnnn2)cc1 (centres unmarked) [Compound 2]	77
Cc1ccc2nc(-c3ccc(NS(=O)(=O)c4cc(C(=O)O)c(Cl)cc4Cl)cc3)sc2c1 [Compound 5]	96
O=C(CN1NS(=O)(=O)c2ccccc2C1=O)NCCc1ccccc1 [Compound 6]	68

Same assay, conditions: Initial hit confirmation, single replicate; read-out: pIC50 (converted)

Structure (SMILES)	IC50 [µM]
CC1c2ccsc2CCN1C(=O)c1ccc(-n2cnnn2)cc1 (centres unmarked) [Compound 2]	31.6
Cc1ccc2nc(-c3ccc(NS(=O)(=O)c4cc(C(=O)O)c(Cl)cc4Cl)cc3)sc2c1 [Compound 5]	12.6
O=C(CN1NS(=O)(=O)c2ccccc2C1=O)NCCc1ccccc1 [Compound 6]	20

Same assay, conditions: Replicate data generation, individual replicates

Structure (SMILES)	Hill Slope	Maximum Effect
CC1c2ccsc2CCN1C(=O)c1ccc(-n2cnnn2)cc1 (centres unmarked) [Compound 2]	1.1 and 1.2	86%
Cc1ccc2nc(-c3ccc(NS(=O)(=O)c4cc(C(=O)O)c(Cl)cc4Cl)cc3)sc2c1 [Compound 5]	4.3 and 4.2 and 3.9	98%
O=C(CN1NS(=O)(=O)c2ccccc2C1=O)NCCc1ccccc1 [Compound 6]	0.9 and 0.54 and 0.7	72% and 73%

Same assay, conditions: Replicate data generation, individual replicates; read-out: Maximum Effect

Structure (SMILES)	Emax [%]
CC1c2ccsc2CCN1C(=O)c1ccc(-n2cnnn2)cc1 (centres unmarked) [Compound 2]	87
Cc1ccc2nc(-c3ccc(NS(=O)(=O)c4cc(C(=O)O)c(Cl)cc4Cl)cc3)sc2c1 [Compound 5]	99
O=C(CN1NS(=O)(=O)c2ccccc2C1=O)NCCc1ccccc1 [Compound 6]	76

Same assay, conditions: Replicate data generation, individual replicates; read-out: pIC50 (converted)

Structure (SMILES)	IC50
CC1c2ccsc2CCN1C(=O)c1ccc(-n2cnnn2)cc1 (centres unmarked) [Compound 2]	15.8 µM
Cc1ccc2nc(-c3ccc(NS(=O)(=O)c4cc(C(=O)O)c(Cl)cc4Cl)cc3)sc2c1 [Compound 5]	7.94 µM
O=C(CN1NS(=O)(=O)c2ccccc2C1=O)NCCc1ccccc1 [Compound 6]	7.94 µM and 12.6 µM and 5.01 µM

Same assay, conditions: average of four independent replicates; read-out: pIC50 +/- StDev (LAPTc) (converted)

Structure (SMILES)	IC50 [µM]
CC1c2ccsc2CCN1C(=O)c1ccc(-n2cnnn2)cc1 (centres unmarked) [Compound 2]	19.5
Cc1ccc2nc(-c3ccc(NS(=O)(=O)c4cc(C(=O)O)c(Cl)cc4Cl)cc3)sc2c1 [Compound 5]	8.91
O=C(CN1NS(=O)(=O)c2ccccc2C1=O)NCCc1ccccc1 [Compound 6]	9.77

Same assay, conditions: whether primary screen hit confirmed in potency experiment

Structure (SMILES)	Hit Confirmation
CC1c2ccsc2CCN1C(=O)c1ccc(-n2cnnn2)cc1 (centres unmarked) [Compound 2]	confirmed
Cc1ccc2nc(-c3ccc(NS(=O)(=O)c4cc(C(=O)O)c(Cl)cc4Cl)cc3)sc2c1 [Compound 5]	confirmed
O=C(CN1NS(=O)(=O)c2ccccc2C1=O)NCCc1ccccc1 [Compound 6]	confirmed

Test system: intracellular T. cruzi amastigotes
Assay: T. cruzi intracellular assay (high-content imaging, infected Vero cells)
Format: cell-based, Trypanosoma cruzi
Design: Max Effect (T. cruzi): unit not given here
Settings: Trypanosoma cruzi, Vero, 96 h, four independent experiments; read-out: pEC50 (T. cruzi) +/- StDev (converted)
Method: T. cruzi parasite, TcI strain Silvio X10/7 subclone A1 [34] was maintained in culture as previously described. Parasites were maintained as amastigotes by passaging on a weekly basis in Vero cells. Culture maintenance infections were carried out at an MOI (multiplicity of infection) of 1.5.
This assay was performed as described with the only modification that treatment was 96 h instead of 72 h. Briefly, Vero cells were infected overnight with tissue culture derived T. cruzi trypomastigotes in T225 tissue culture flasks (MOI 5). Any remaining free trypomastigotes were washed away with serum free MEM and the infected Vero cells were harvested by trypsinisation. Compounds (250 nL in DMSO) were dispensed using LabCyte ECHO (Beckman Coulter Life Sciences, USA) into each well of Corning black flat bottomed 384-well plates (Corning, USA). […] The infected Vero cells were then plated into the plates containing the compounds, at 4,000 cells per well in MEM media with 1% FCS. After 96 h incubation at 37°C in presence of 5% CO2, the plates were fixed with 4% formaldehyde for 20 min at room temperature and stained with 5 μg/mL Hoechst 33342. The plates were imaged on a Perkin Elmer Operetta high-content imaging system using a 20× objective. Images were analyzed using the Columbus system (Perkin Elmer). The algorithm first identified the Vero nuclei followed by demarcation of the cytoplasm and identification of intracellular amastigotes. This algorithm reported percent infected Vero cell and total number of Vero cells. All potency determinations were carried out in at least three independent replicates and are reported as pEC50 +/- standard deviation. pEC50 = -log(EC50[M]).

Structure (SMILES)	EC50 [µM]
CC1c2ccsc2CCN1C(=O)c1ccc(-n2cnnn2)cc1 (centres unmarked) [Compound 2]	> 50.1
Cc1ccc2nc(-c3ccc(NS(=O)(=O)c4cc(C(=O)O)c(Cl)cc4Cl)cc3)sc2c1 [Compound 5]	> 50.1
O=C(CN1NS(=O)(=O)c2ccccc2C1=O)NCCc1ccccc1 [Compound 6]	> 50.1

Same assay, conditions: Trypanosoma cruzi, Vero, individual replicates; read-out: Max Effect (T. cruzi)

Structure (SMILES)	Emax [%]
Cc1ccc2nc(-c3ccc(NS(=O)(=O)c4cc(C(=O)O)c(Cl)cc4Cl)cc3)sc2c1 [Compound 5]	44
O=C(CN1NS(=O)(=O)c2ccccc2C1=O)NCCc1ccccc1 [Compound 6]	11

Same assay, conditions: Trypanosoma cruzi, Vero, individual replicates; read-out: pEC50 (T. cruzi) (converted)

Structure (SMILES)	EC50 [µM]
CC1c2ccsc2CCN1C(=O)c1ccc(-n2cnnn2)cc1 (centres unmarked) [Compound 2]	> 50.1
Cc1ccc2nc(-c3ccc(NS(=O)(=O)c4cc(C(=O)O)c(Cl)cc4Cl)cc3)sc2c1 [Compound 5]	> 50.1
O=C(CN1NS(=O)(=O)c2ccccc2C1=O)NCCc1ccccc1 [Compound 6]	> 50.1

Same assay, conditions: individual replicates

Structure (SMILES)	Max Effect (T. cruzi)
CC1c2ccsc2CCN1C(=O)c1ccc(-n2cnnn2)cc1 (centres unmarked) [Compound 2]	42 and 15 and 37 and 27
Cc1ccc2nc(-c3ccc(NS(=O)(=O)c4cc(C(=O)O)c(Cl)cc4Cl)cc3)sc2c1 [Compound 5]	45
O=C(CN1NS(=O)(=O)c2ccccc2C1=O)NCCc1ccccc1 [Compound 6]	20 and 14 and 16
